This note sets out measurements from patent US20090137499A1, “BENZYLPHENYL GLUCOPYRANOSIDE DERIVATIVE” (priority 2006, published 2009).

The experiment deals with T1, human SGLT1 (Homo sapiens, UniProt P13866).
T1 construct: expressed in transfected cells
T1 sequence (P13866 1-664): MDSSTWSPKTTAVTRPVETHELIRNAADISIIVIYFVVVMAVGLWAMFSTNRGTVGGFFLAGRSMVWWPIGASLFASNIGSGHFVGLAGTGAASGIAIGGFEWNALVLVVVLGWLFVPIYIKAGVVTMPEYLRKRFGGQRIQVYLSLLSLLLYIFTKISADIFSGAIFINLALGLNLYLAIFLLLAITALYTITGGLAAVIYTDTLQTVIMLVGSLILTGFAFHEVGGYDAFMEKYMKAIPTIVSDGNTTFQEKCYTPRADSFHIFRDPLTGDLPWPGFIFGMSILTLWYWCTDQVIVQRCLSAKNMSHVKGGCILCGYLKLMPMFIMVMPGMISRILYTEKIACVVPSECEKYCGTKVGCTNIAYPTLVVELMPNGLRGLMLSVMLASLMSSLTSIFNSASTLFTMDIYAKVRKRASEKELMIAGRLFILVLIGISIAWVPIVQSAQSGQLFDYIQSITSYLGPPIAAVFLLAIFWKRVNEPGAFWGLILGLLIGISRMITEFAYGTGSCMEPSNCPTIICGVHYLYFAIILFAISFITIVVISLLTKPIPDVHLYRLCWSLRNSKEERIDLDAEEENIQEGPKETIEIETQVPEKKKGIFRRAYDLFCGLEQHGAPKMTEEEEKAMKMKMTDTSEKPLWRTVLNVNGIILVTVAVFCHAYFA
Nature of the experiment: Determination of SGLT1 inhibiting activity using human SGLT1 expressing cell ([14C]-α-methyl-D-glucopyranoside uptake). Type of experiment: cell-based. Particulars: HEK-SGLT1 cells, 1 mM [14C]-α-methyl-D-glucopyranoside, 37° C., 30 min. The procedure: Determination of SGLT1 Inhibiting Activity Using Human SGLT1 Expressing Cell
1) Preparation of Vector Expressing Human SGLT1 cDNA in Animal Cell
Amplification was performed by PCR using human SGLT1 cDNA clone (Origene: Clone Number, TC119918; GenBank accession number, NM 000343) as a template. The sense oligonucleotide primer for PCR was 5′-[…]-3′ (Primer 1: SEQ ID NO: 1 in the sequence listing),
and the antisense oligonucleotide primer was 5′-[…]-3′ (Primer 2: SEQ ID NO: 2 in the sequence listing).
The PCR product was subjected to agarose electrophoresis, then a target DNA fragment was recovered from a single band corresponding to 2013 bases, digested with restriction enzymes HindIII and XhoI, and introduced into the HindIII/XhoI site of vector pCMV-Script (Stratagene) to obtain SGLT1 expressing plasmid pCMV-SGLT1. A HindIII/XhoI fragment was excised from pCMV-SGLT1 and introduced into the BamHI/XhoI site of pENTR1A (Gateway, Invitrogen) to prepare pENTR-SGLT1. Retrovirus vector pLPCX (Clontech) into which Gateway Vector Conversion System Cassette A (Invitrogen) was introduced was used as the destination plasmid to prepare SGLT1 expressing retrovirus vector pLPCX-SGLT1.
2) Establishment of Human SGLT1 Expressing Cell
The retrovirus pLPCX-SGLT1 obtained in 1) was transfected into integrin αvβ3 expressing HEK-293 cells and, the cells were treated with antibiotic G418 (brand name, Geneticin: Invitrogen) and puromycin (Clontech) to obtain HEK-SGLT1 cells stably expressing the target vector having resistance. The stably expressing cells were cultured and maintained in DMEM medium containing […] G418, […] puromycin, 3 mM KGT-1075, and 10% FBS.
3) Determination of SGLT1 Inhibiting Activity
HEK-SGLT1 cells were suspended at a density of 10^6 cells/mL in DMEM medium containing […] G418, 1 mg/ml puromycin, and 10% FBS, and 100 μL was seeded in each well of a type 1 collagen-coated 96-well culture plate (Corning). On the following day, the medium was replaced with a sugar uptake buffer (10 mM HEPES [pH 7.5], 5 mM Tris-HCl [pH 7.5], 140 mM NaCl, 2 mM KCl, 1 mM CaCl2, 1 mM MgCl2), and the cells were cultured with 1 mM [^14C]-α-methyl-D-glucopyranoside (0.1 mCi) and the test compound at 37° C. for 30 min and then washed 3 times with a washing buffer (10 mM HEPES [pH 7.5], 5 mM Tris-HCl [pH 7.5], 140 mM choline chloride, 2 mM KCl, 1 mM CaCl2, 1 mM MgCl2). 100 μL of liquid scintillation cocktail (brand name, Supermix: Perkin-Elmer) was added to each well of the 96-well plate and stirred for 10 min, and then radioactivity was determined with micro β (Perkin-Elmer), a type of liquid scintillation counter. The value as the sugar uptake activity was obtained by deducting the radioactivity in the presence of an excess amount of an SGLT1 inhibiting compound as the background from each measured value, the inhibition rate (%) was calculated from the control sugar uptake activity obtained without using a test compound and the sugar uptake activity obtained using a test compound having a predetermined the concentration, and concentrations of the test compound at which the sugar uptake activity was inhibited by 50% were assessed.
Regarding `COc1ccc(Cc2ccc(CO)cc2O[C@@H]2O[C@H]([C@@H](C)O)[C@@H](O)[C@H](O)[C@H]2O)c(F)c1` [Example 82, 2-(2-Fluoro-4-methoxybenzyl)-5-hydroxymethylphenyl 7-deoxy-D-glycero-β-D-gluco-heptopyranoside], the IC50 was 0.219 µM.
As to `COc1ccc(Cc2c(OC)cc(CO)cc2O[C@@H]2O[C@H]([C@@H](C)O)[C@@H](O)[C@H](O)[C@H]2O)cc1` [Example 83, 5-Hydroxymethyl-3-methoxy-2-(4-methoxybenzyl)phenyl 7-deoxy-D-glycero-β-D-gluco-heptopyranoside], it took 0.142 µM to reach half-maximal inhibition (IC50).
`COc1ccc(Cc2c(F)cc(CO)cc2O[C@@H]2O[C@H]([C@@H](C)O)[C@@H](O)[C@H](O)[C@H]2O)cc1` [Example 84, 3-Fluoro-5-hydroxymethyl-2-(4-methoxybenzyl)phenyl 7-deoxy-D-glycero-β-D-gluco-heptopyranoside] gave an IC50 of 0.031 µM. Against the preceding compound, the IC50 is about 4.6-fold lower.
As for `C[C@@H](O)[C@H]1O[C@@H](Oc2cc(CO)cc(F)c2Cc2ccc(C3CC3)cc2)[C@H](O)[C@@H](O)[C@@H]1O` [Example 88, 2-(4-Cyclopropylbenzyl)-3-fluoro-5-hydroxymethylphenyl 7-deoxy-D-glycero-β-D-gluco-heptopyranoside], the figure is 0.051 µM.
As for `CCc1ccc(Cc2c(C)cc(CO)cc2O[C@@H]2O[C@H]([C@@H](C)O)[C@@H](O)[C@H](O)[C@H]2O)cc1` [Example 89, 2-(4-Ethylbenzyl)-5-hydroxymethyl-3-methylphenyl 7-deoxy-D-glycero-β-D-gluco-heptopyranoside], the figure is 0.081 µM; as for `CCOc1ccc(Cc2ccc(CO)cc2O[C@@H]2O[C@H]([C@@H](C)O)[C@@H](O)[C@H](O)[C@H]2O)cc1` [Example 93, 2-(4-Ethoxybenzyl)-5-hydroxymethylphenyl 7-deoxy-D-glycero-β-D-gluco-heptapyranoside], 0.43 µM; as for `COc1ccc(Cc2c(C)cc(CO)cc2O[C@@H]2O[C@H]([C@@H](C)O)[C@@H](O)[C@H](O)[C@H]2O)cc1` [Example 94, 5-Hydroxymethyl-2-(4-methoxybenzyl)-3-methylphenyl 7-deoxy-D-glycero-β-D-gluco-heptopyranoside], 0.037 µM.
As for `C[C@@H](O)[C@H]1O[C@@H](Oc2cc(CO)cc(Cl)c2Cc2ccc(OC3CC3)cc2)[C@H](O)[C@@H](O)[C@@H]1O` [Example 95, 3-Chloro-2-(4-cyclopropoxybenzyl)-5-hydroxymethyl-phenyl 7-deoxy-D-glycero-β-D-gluco-heptopyranoside], the figure is 0.082 µM; as for `Cc1cc(CO)cc(O[C@@H]2O[C@H]([C@@H](C)O)[C@@H](O)[C@H](O)[C@H]2O)c1Cc1ccc(OC2CC2)cc1` [Example 96, 2-(4-Cyclopropoxybenzyl)-5-hydroxymethyl-3-methyl-phenyl 7-deoxy-D-glycero-β-D-gluco-heptopyranoside], 0.077 µM; as for `Cc1ccc(Cc2c(F)cc(CO)cc2O[C@@H]2O[C@H]([C@@H](C)O)[C@@H](O)[C@H](O)[C@H]2O)cc1` [Example 97, 3-Fluoro-5-hydroxymethyl-2-(4-methylbenzyl)phenyl 7-deoxy-D-glycero-β-D-gluco-heptopyranoside], 0.052 µM.
Regarding `Cc1ccc(Cc2ccc(CO)cc2O[C@@H]2O[C@H]([C@@H](C)O)[C@@H](O)[C@H](O)[C@H]2O)cc1` [Example 98, 5-Hydroxymethyl-2-(4-methylbenzyl)phenyl 7-deoxy-D-glycero-β-D-gluco-heptapyranoside], inhibition was half-maximal at 0.18 µM (IC50).
`C=Cc1cc(CO)cc(O[C@@H]2O[C@H]([C@@H](C)O)[C@@H](O)[C@H](O)[C@H]2O)c1Cc1ccc(OC)cc1` [Example 101, 5-Hydroxymethyl-2-(4-methoxybenzyl)-3-vinyl-phenyl 7-deoxy-D-glycero-β-D-gluco-heptopyranoside] yielded an IC50 of 0.168 µM.

By IC50 is commonly meant the concentration needed to halve the response being measured. Higher therefore signals weaker potency.
